Source: patent US20110044907A1, “IN VIVO SCREENING ASSAYS” (priority 2009, published 2011)
Where a name gives a salt, the structure may show the parent alone.

Columns and labels:
BxPC-3-GFP tumor cells = assay: Surgical orthotopic implantation of BxPC-3-GFP pancreatic tumor cells in nude mice; format: in vivo, mouse; conditions: female NCr nu/nu mice; AB0023 30 mg/kg IP twice per week 6 weeks; Gemzar 200 mg/kg IP once per week 3 weeks
Procedure: Tumor formation and metastasis are monitored by fluorescence imaging.
Approximately 75 female nude mice (NCr nu/nu), 5-6 weeks old, are anesthetized by intraperitoneal injection of a solution of 100 mg/kg ketamine and 5 mg/kg xylazine. Under anesthesia, BxPC-3-GFP tumor cells are surgically implanted, by suturing into the pancreas. […] Each group contains 15 animals, and all administrations are intraperitoneal.
Body weight is determined once per week.
At the conclusion of the study, blood is collected by cardiac puncture and one ml is used for preparation of serum.
The other half is snap frozen for RNA isolation.

[1] = tested on: MDA-MB-231-luc-D3H2LN cells; assay: Breast tumor metastasis model, intracardiac injection, bioluminescent imaging; format: in vivo, mouse; conditions: AB0023 30 mg/kg IP twice per week; taxol 5 mg/kg daily
Procedure: In this model system, MDA-MB-231-luc-D3H2LN cells (Caliper Life Sciences, Hopkinton, Mass.), a derivative of a human breast cancer cell line that has been stably transfected with a luciferase gene were introduced into female nude mice by intracardiac injection. The cells are disseminated through the circulation, and the occurrence and location of metastases are determined by in vivo bioluminescent imaging (BLI).
Approximately 80 female nude mice (NCr nu/nu), 8-10 weeks old, were anesthetized by intraperitoneal injection of a solution of 100 mg/kg ketamine and 5 mg/kg xylazine. […] Bioluminescence from whole body and lung projection was measured and expressed as photons per second. If the ratio of whole body luminescence to lung luminescence was less than 3, the mouse was excluded from the study. […]
Ventral and dorsal views of the animals were obtained by in vivo bioluminescent imaging (BLI) on days 0, 7, 10, 13, 16, 21, 24 AND 28; using the IVIS®-Spectrum imaging system (Caliper Life Sciences, Hopkinton, Mass.). Data were analyzed using Living Image 3.0 Software (Caliper Life Sciences, Hopkinton, Mass.).
Body weight was measured once per week for the first two weeks of the study, then three times per week until the conclusion of the study. […]

SMILES | mean tumor volume (BxPC-3-GFP tumor cells) | survival advantage compared to vehicle-treated animals [1]
Nc1ccn([C@@H]2O[C@H](CO)[C@@H](O)C2(F)F)c(=O)n1 [Gemzar, gemcitabine-HCl] | reduced | 
CC(=O)O[C@H]1C(=O)[C@@]2(C)[C@H]([C@H](OC(=O)c3ccccc3)[C@]3(O)C[C@H](OC(=O)[C@H](O)[C@@H](NC(=O)c4ccccc4)c4ccccc4)C(C)=C1C3(C)C)[C@]1(OC(C)=O)CO[C@@H]1C[C@@H]2O [taxol] |  | not observed
